Values joined by “and” are separate entries in the source; they are usually repeats but may differ in a detail not shown here. Identical values can stand only once. “Also recorded” adds a separate entry of the source. Like-named read-outs stand apart in the source and are kept apart here.
Assays:
[1] = tested on: peripheral leukocyte (WBC); assay: effects on peripheral leukocyte (WBC) count; assay type: in vivo, mice; conditions: LD10-range dose i.p., days 3, 4, 5, 6 and 10
Method: Comparative studies were performed with M-TAG and mitomycin C. Drug was dissolved in absolute ethanol, and then adjusted to a final concentration of 8% ethanol-92% sterile water. Blood samples obtained were diluted in 9.98 ml of Isoton (a neutral isotonic buffer solution) and counted in a Coulter counter after lysis with Zapoglobin (an enzyme solution which lyses red blood cells but not white blood cells). WBC counts are expressed as a percentage of values from control mice receiving drug vehicle only.

E. coli WP2s (λ) = conditions: for Induction of prophage, PFU/DISH: 24 hours
human bone marrow cells = assay: human bone marrow CFU-C assay
Method: (§2) The human bone marrow CFU-C assay measures human bone marrow cells committed to granulocyte-macrophage differentiation. This in vitro assay serves as a model for predicting the relative toxicity of an experimental drug on the granulocytic series of the bone marrow. […] Both drugs were dissolved in 0.5% DMSO, and nucleated human bone marrow cells were exposed in vitro (for 90 minutes at 37° C.) to varying concentrations of each drug. The cells were then plated in triplicate in 3% agar for the CFU-C assay, using GCT, (Giant Cell Tumor) extract (Gibco, Grand Island, N.Y.) as colony-stimulating factor.

[2] = human bone marrow CFU-C assay; conditions: human, bone marrow cells
Method: as §2

P388 leukemia = assay: murine P388 leukemia antitumor activity; assay type: in vivo
Method: The murine P388 leukemia system, maintained intraperitoneally in female DBA/2 mice, was used to evaluate antitumor activity.
The P388 antileukemic activity of the test compound (M-TAG) was assessed by mean survival days, percentage increased life span or %ILS, and number of survivors after 45 days. The %ILS was calculated as follows:
%ILS=(T-C)/C×100 where T is the mean survival days of the treated mice and C is the mean survival days of the untreated mice

[3] = toxic single doses in normal CD2F1 mice; conditions: for Deaths due to drug toxicity: up to 45 days
Method: Drug was administered intraperitoneally (i.p.) in a volume of 0.1 ml per 10 grams body weight.

Ehrlich ascites = assay: murine Ehrlich ascites antitumor activity; assay type: in vivo
Method: The antitumor activity of M-TAG for the murine Ehrlich ascities tumor was also determined. Ehrlich ascites was maintained i.p. in female BALB/C mice. For antitumor studies, 1×10^7 Ehrlich ascites cells (in 0.10 ml) were implanted i.p. in male BD2F1 mice. Drug was administered i.p. (single LD10 dose) one day after tumor implantation.

B16 melanoma = assay: murine B16 melanoma antitumor activity
Text: Activity against the murine B16 melanoma is currently being determined.

W3100 (E. coli) = assay: antibiotic activity, bacterial growth inhibition in culture; assay type: cell-based
Method: (§1) Bacteria were grown in a standard growth culture at pH 7.2. After the cultures were incubated at 37° C. overnight and diluted into fresh medium, controls and the test antibiotics dissolved in 0.3% hydroxy propylcellulose (HPC) were added at various concentrations and then reincubated overnight. The measure of antibiotic activity was determined by the amount of bacterial growth inhibition as shown by measurement of the optical density at 660 nm.

Klebsiella Pneumonia = assay: as above; assay type: cell-based
Method: as §1

[4] = approximate LD10 dose (M-TAG 250 mg/kg; mitomycin C 4 mg/kg), day one

For `CO[C@@]12[C@H](COC(N)=O)C3=C(C(=O)C(C)=C(N)C3=O)N1C[C@H]1[C@@H]2N1C(=S)N[C@@H]1O[C@H](COC(C)=O)[C@@H](OC(C)=O)[C@H](OC(C)=O)[C@H]1NC(C)=O` [M-TAG, 1a(N-2-acetamido-3,4,6-tri-O-acetyl-2-deoxy-D-glucopyranosylthiocarbamoyl)-mitomycin C], the “WBC depression / myelotoxicity (in words)” value [1] was “no significant depression in WBC counts at all days tested; also recorded: no significant myelotoxicity as measured by WBC depression”, the “maximum increase of phage titer over control” value (E. coli WP2s (λ)) was 50-100% and the “Induction of prophage, PFU/DISH” value (E. coli WP2s (λ); 0.005 ug/ml) was 148.5 PFU/DISH. For the same molecule, the “Induction of prophage, PFU/DISH” value (E. coli WP2s (λ); 0.020 ug/ml) was 152.5 PFU/DISH, the “Induction of prophage, PFU/DISH” value (E. coli WP2s (λ); 0.03125 ug/ml) was 591.5 PFU/DISH and the “Induction of prophage, PFU/DISH” value (E. coli WP2s (λ); 0.125 ug/ml) was 799.5 PFU/DISH. For the same molecule, the “Induction of prophage, PFU/DISH” value (E. coli WP2s (λ); 0.500 ug/ml) was 2535.0 PFU/DISH, the “Induction of prophage, PFU/DISH” value (E. coli WP2s (λ); 2.000 ug/ml) was 5395.0 PFU/DISH and the “Induction of prophage, PFU/DISH” value (E. coli WP2s (λ); 3.125 ug/ml) was 3516.5 PFU/DISH. The “Induction of prophage, PFU/DISH” value (E. coli WP2s (λ); 12.500 ug/ml) was 461.5 PFU/DISH, the “Induction of prophage, PFU/DISH” value (E. coli WP2s (λ); 50.000 ug/ml) was 169.0 PFU/DISH and the “Induction of prophage, PFU/DISH” value (E. coli WP2s (λ); 200.000 ug/ml) was 14.5 PFU/DISH. For the same molecule, the “bone marrow toxicity compared to parent mitomycin-C (in words)” value (human bone marrow cells) was “reduced bone marrow toxicity”, the activity at 1.5 h, 100 µM [2] was 66% and the activity at 1.5 h, 500 µM [2] was 43%. For the same molecule, the activity at 1.5 h, 1000 µM [2] was < 20%, the “overall survivals, M-TAG versus mitomycin C at LD10 dose (in words)” value (P388 leukemia; LD10 dose) was “no statistical difference in the overall survivals” and the “% ILS” value (P388 leukemia; [4]) was 85%. The “Mean Survival” value (P388 leukemia; [4]) was 22 days, the “antitumor activity against murine P388 leukemia (in words)” value (P388 leukemia; mouse, in vivo) was “equivalent to that achieved with the parent mitomycin C” and the “Deaths due to drug toxicity” value ([3]; 250 mg/kg, single i.p. dose) was 0/10. For the same molecule, the “Deaths due to drug toxicity” value ([3]; 275 mg/kg, single i.p. dose) was 1/10, the “Deaths due to drug toxicity” value ([3]; 300 mg/kg, single i.p. dose) was 3/10 and the “difference in LD10 dose in mice relative to mitomycin C” value ([3]; molar basis) was 30-40 fold. The “approximate LD10 dose (molar)” value ([3]; single i.p. dose) was ~346 µmol/kg, the LD10 dose ([3]; single i.p. dose toxic to 10% of normal mice) was 275 mg/kg and 250 to 275 mg/kg and ~250 mg/kg and the “antitumor activity against murine Ehrlich ascites (in words)” value (Ehrlich ascites; mouse, in vivo) was “significant antitumor activity”. The “% ILS” value (Ehrlich ascites; single approximate LD10 dose i.p. (M-TAG 250 mg/kg; mitomycin C 4 mg/kg), one day after implantation) was 66%, the “Mean Survival” value (Ehrlich ascites; single approximate LD10 dose i.p., 250 mg/kg) was 22.8 days and the “mice alive on day 20” value (B16 melanoma; M-TAG 250 mg/kg or mitomycin C 4 mg/kg, i.p. day 1) was 6 out of 10. The “mice alive on day 10” value (B16 melanoma; M-TAG 250 mg/kg or mitomycin C 4 mg/kg, i.p. day 1, all vehicle-control mice died) was “All”, the “antitumor activity against murine B16 melanoma (in words)” value (B16 melanoma; mouse, in vivo) was “significant antitumor activity” and the “optical density at 660 nm (figure in parentheses)” value (“optical density at 660 nm” for short) (W3100 (E. coli); 0.04 mcg/ml) was 0.48. For the same molecule, the “optical density at 660 nm” value (W3100 (E. coli); 0.4 mcg/ml) was 0.51, the “optical density at 660 nm” value (W3100 (E. coli); 4.0 mcg/ml) was 0.30 and the “optical density at 660 nm” value (W3100 (E. coli); 40 mcg/ml) was 0.07. For the same molecule, the “optical density at 660 nm” value (W3100 (E. coli); 400 mcg/ml) was 0.04, the inhibition at 0.04 µg/mL (W3100 (E. coli); Escherichia coli, 0.04 mcg/ml, 37° C. overnight, read-out: amount of bacterial growth inhibition (first figure)) was 33% and the inhibition at 0.4 µg/mL (W3100 (E. coli); Escherichia coli, 0.4 mcg/ml, 37° C. overnight, read-out: amount of bacterial growth inhibition (first figure)) was 31%. It also gave an inhibition at 4 µg/mL (W3100 (E. coli); Escherichia coli, 4.0 mcg/ml, 37° C. overnight, read-out: amount of bacterial growth inhibition (first figure)) of 50%, an inhibition at 40 µg/mL (W3100 (E. coli); Escherichia coli, 40 mcg/ml, 37° C. overnight, read-out: amount of bacterial growth inhibition (first figure)) of 86% and an inhibition at 400 µg/mL (W3100 (E. coli); Escherichia coli, 400 mcg/ml, 37° C. overnight, read-out: amount of bacterial growth inhibition (first figure)) of 92%. For the same molecule, the “optical density at 660 nm” value (Klebsiella Pneumonia; 0.04 mcg/ml) was 0.66, the “optical density at 660 nm” value (Klebsiella Pneumonia; 0.4 mcg/ml) was 0.62 and the “optical density at 660 nm” value (Klebsiella Pneumonia; 4.0 mcg/ml) was 0.59. The “optical density at 660 nm” value (Klebsiella Pneumonia; 40 mcg/ml) was 0.40, the “optical density at 660 nm” value (Klebsiella Pneumonia; 400 mcg/ml) was 0.04 and the inhibition at 0.04 µg/mL (Klebsiella Pneumonia; Klebsiella pneumoniae, 0.04 mcg/ml, 37° C. overnight, read-out: amount of bacterial growth inhibition (first figure)) was 22%. The inhibition at 0.4 µg/mL (Klebsiella Pneumonia; Klebsiella pneumoniae, 0.4 mcg/ml, 37° C. overnight, read-out: amount of bacterial growth inhibition (first figure)) was 24%, the inhibition at 4 µg/mL (Klebsiella Pneumonia; Klebsiella pneumoniae, 4.0 mcg/ml, 37° C. overnight, read-out: amount of bacterial growth inhibition (first figure)) was 26% and the inhibition at 40 µg/mL (Klebsiella Pneumonia; Klebsiella pneumoniae, 40 mcg/ml, 37° C. overnight, read-out: amount of bacterial growth inhibition (first figure)) was 40%.
